Legend:
[1] = tested on: C57BL/6J mice; experiment: Head-twitch response; conditions: i.p., 5-MeO-DMT 10 mg/kg, IBG and TBG fumarate salts 10 and 50 mg/kg
[2] = tested on: C57BL/6J mice; conditions: cited from earlier work
[3] = tested on: rodents trained to discriminate DOM from saline; conditions: cited from earlier work
[4] = tested on: mouse primary sensory cortex; experiment: In vivo spine dynamics, transcranial 2-photon imaging; conditions: 24 h after treatment; DOI 10 mg/kg, TBG 50 mg/kg i.p.
[5] = tested on: C57/BL6J mice; experiment: Forced swim test in the absence of UMS; assay type: in vivo, mouse
[6] = tested on: larval zebrafish; experiment: Larval zebrafish behavioral profiling; assay type: in vivo; conditions: 1–200 μM, 7 dpf, battery of light and acoustic stimuli
[7] = tested on: larval zebrafish expressing GCaMP5; experiment: Larval zebrafish seizure experiments; assay type: in vivo; conditions: IBO and TBG 50 μM, PTZ 15 mM, 1 h

COc1ccc2[nH]cc(CCN(C)C)c2c1 [5-MeO-DMT, 5-methoxy-N,N-dimethyltryptamine]
head-twitch response (hallucinogenic potential) [1]: produces a robust HTR

COc1ccc2c(CCN(C)C)c[nH]c2c1 [6-MeO-DMT]
head-twitch response [2]: does not produce a head-twitch response | substitution for DOM [3]: did not substitute for the hallucinogen 2,5-dimethoxy-4-methylamphetamine (DOM) at any dose

COc1cc(CC(C)N)c(OC)cc1I (centres unmarked) [DOI, 2,5-dimethoxy-4-iodoamphetamine]
spine elimination [4]: without impacting spine elimination | spine formation [4]: increased spine formation

CNC1(c2ccccc2Cl)CCCCC1=O (centres unmarked) [KET, ketamine]
FST immobility ([5]; 24 h following administration, TBG 50 mg/kg, ketamine 3 mg/kg i.p.): significantly reduced immobility | durability of FST effect ([5]; 7 d post drug administration): appeared to be more durable

C1CCc2nnnn2CC1 [PTZ, pentylenetetrazole]
behavioral profile versus vehicle and lethal (eugenol) controls [6]: produce behavioral phenotypes more closely resembling a lethal phenotype | seizurogenic potential (neural activity, GCaMP5 fluorescence) [7]: excessive neural activity

O=S1OCC2C(CO1)C1(Cl)C(Cl)=C(Cl)C2(Cl)C1(Cl)Cl (centres unmarked) [endosulfan]
behavioral profile versus vehicle and lethal (eugenol) controls [6]: produce behavioral phenotypes more closely resembling a lethal phenotype

O=C(CCCN1CCC(O)(c2ccc(Cl)cc2)CC1)c1ccc(F)cc1 [haloperidol]
behavioral profile versus vehicle and lethal (eugenol) controls [6]: more closely resembling the lethal control

O=C1NCCN1CCN1CCC(c2cn(-c3ccc(F)cc3)c3ccc(Cl)cc23)CC1 [sertindole]
behavioral profile versus vehicle and lethal (eugenol) controls [6]: more closely resembling the lethal control

CC(C)(C)c1ccc(C(O)CCCN2CCC(C(O)(c3ccccc3)c3ccccc3)CC2)cc1 (centres unmarked) [terfenadine]
behavioral profile versus vehicle and lethal (eugenol) controls [6]: more closely resembling the lethal control

picrotoxin
behavioral profile versus vehicle and lethal (eugenol) controls [6]: produce behavioral phenotypes more closely resembling a lethal phenotype
